# Source: ChEMBL document CHEMBL4052737, “3-Oxo-γ-costic acid fungal-transformation generates eudesmane sesquiterpenes with in vitro tumor-inhibitory activity” (Bioorg Med Chem Lett, 2017)
# Active and inactive are the calls of the source. No cut-off for these calls is given here.
# Tests used:
# Format in all cases: functional, cell-based
# A549 = experiment: Antiproliferative activity against human A549 cells after 48 hrs by MTT assay; conditions: for IC50: A549, 48 h
# Caco-2 [1] = experiment: Antiproliferative activity against human Caco2 cells after 48 hrs by MTT assay; conditions: for IC50: Caco-2, 48 h
# Caco-2 [2] = experiment: Induction of morphological changes in human Caco2 cells assessed as monolayer disruption at 50 uM by bright field phase contrast microscopy
# Caco-2 [3] = experiment: Induction of morphological changes in human Caco2 cells assessed as cell shrinkage at 50 uM by bright field phase contrast microscopy
SMILES,Activity (A549),IC50 (A549) [µM],Activity (Caco-2 [1]),IC50 (Caco-2 [1]) [µM],Activity (Caco-2 [2]),Activity (Caco-2 [3])
C=C(C(=O)O)[C@@H]1CC[C@@]2(C)C[C@H](O)C(=O)C(C)=C2C1,Dose-dependent effect,> 100,Dose-dependent effect,60,,
C=C(C(=O)O)[C@@H]1CC[C@]2(C)C(=C(C)C(=O)[C@@H](O)[C@H]2O)C1,Dose-dependent effect,74,Dose-dependent effect,66,,
C=C(C(=O)O)[C@@H]1CC[C@]2(C)C(=C(C)C(=O)C[C@H]2O)C1,Dose-dependent effect,> 100,Dose-dependent effect,75,,
C=C(C(=O)O)[C@@H]1CC[C@@]2(C)C=CC(=O)C(C)=C2C1,Dose-dependent effect,> 100,Dose-dependent effect,66,,
C=C(C(=O)O)[C@@H]1CC[C@@]2(C)C=C(O)C(=O)C(C)=C2C1,Dose-dependent effect,> 100,Dose-dependent effect,46,,
C=C(C(=O)O)[C@@H]1CC[C@@]2(C)CCC(=O)C(C)=C2C1,Dose-dependent effect,> 100,Dose-dependent effect,39,Active,Active
